Results reported in patent US20230272077A1, “PD-1 SIGNAL INHIBITOR COMBINATION THERAPY” (KYOTO UNIVERSITY, priority 2015, published 2023).
Entries after “also recorded” stand apart in the source; their conditions may differ.

Experiments:
MC38 = test: Mouse therapy model, MC38-bearing mice (tumor volume, survival); type: in vivo
Procedure: MC38 (5×10^5) and MethA (5×10^5) cells were intradermally injected on the right flank. MC38 was inoculated into C57BL/6 mice and MethA was inoculated into BALB/c mice. For monotherapy, mice were intraperitoneally injected with 150 μg of PD-L1 mouse antibody (1-111A) (prepared by the laboratory of the present inventors) 5 days after the tumor inoculation. Therapy with PD-L1 antibody alone was repeated three times every 5 days. For combination therapy, administration of PD-L1 antibody and chemical agents started 7 days after tumor injection. Chemical agents were injected at a regular interval of 2 days and PD-L1 antibody at a regular interval of 5 days (shown in FIG. 3b). Tumors were measured on every alternate day, and tumor volumes were calculated using the formula for typical ellipsoid, π×(length×breadth×height/6).
The following chemical reagents were used at the indicated concentrations for combination therapy. AMPK activator: A769662, 6 mg/kg (Abcam); mTOR activator: MHY1485, 3 μg/kg (Sigma-Aldrich); uncoupler: carbonylcyanide-p-trifluoromethoxyphenylhydrazone (FCCP), 1.2 mg/kg (Abcam); uncoupler: 2,4-Dinitrophenol (DNP), 1.7 mg/kg (Aldrich); SIRT1 activator: resveratrol, 0.5 mg/kg (Abcam); ROS scavenger: Mn (III) tetrakis (4-benzoic acid) porphyrin (MnTBAP), 1.25 mg/kg (Calbiochem); ROS generator: tert-butyl hydroperoxide solution (Luperox TBH70X), 200 μL/kg (Sigma-Aldrich); ATP synthase inhibitor: oligomycin, 250 μg/kg (Sigma-Aldrich); paraquat 2 mg/kg (Nakalai Tesque); oltipraz 1.9 mg/kg (Sigma); bezafibrate 1 mg/kg (ChemCruz).
All reagents were freshly prepared just before use. Each reagent was dissolved in the solvent indicated in the instructions. Note that the AMPK activator, mTOR activator, uncouplers and SIRT1 activator were prepared from fresh unused vials in each series of experiments. Dissolved reagents were diluted in PBS, and a 200 l aliquot was injected per mouse.
Murine colon adenocarcinoma MC38 cells (5×10^5) were inoculated into C57BL/6 mice. After 7 days, anti-PD-L1 antibody (1-111A, 150 μg) and AMPK inhibitor (Compound C: 200 μg in BBS, 200 μL) were administered intraperitoneally. Anti-PD-L1 antibody was administered 3 times at a regular interval of 6 days; Compound C (C.C) was administered 7 times at a regular interval 2 days.
MC38 cells (5×10^5) were inoculated into C57BL/6 mice. After 7 days, anti-PD-L1 antibody (1-111A, 150 μg) and PGC-1α/transcription factor complex activator (2-(4-{2-[(4-chlorobenzoyl)amino]ethyl}phenoxy)-2-methylpropanoic acid (bezafibrate): 10 ug in PBS, 200 ul) were administered intraperitoneally. Anti-PD-L1 antibody was administered 3 times at a regular interval of 6 days; bezafibrate was administered 7 times at a regular interval 2 days.

IFN-γ = test: Intracellular IFN-γ staining of CD8+ T cells from digested tumor tissues; type: in vivo, mouse; conditions: CD8+ T cells in tumors; combined with PD-L1 antibody
Procedure: FIG. 15. […] Data represent the means±SEM of five mice. *p<0.05, **p<0.01, one-way ANOVA.
The following antibodies recognizing the indicated antigens were used: CD44 (1M7), CD45.2 (104), CD45.1 (A20), CD8 (53-6.7), CD62L (MEL-14), T-bet (4B/O) and IFN-7 (XMG1.2), MHC class I (AF6-88.5), CD155 (Tx56) and VISTA (MIH63) from BioLegend; p-AMPK (EPR5683) from Ancam; p-mTOR (MRRBY), Eomes (Danllmag) and PD-L1 (M1H5) from eBioscience. All flow cytometry experiments were performed on a FACS Canto II (BD Biosciences) and analyzed using FlowJo software (FLOWJO, LLC). For assessment of intracellular phosphoproteins, cells were permeabilized with 0.5% Triton-X and fixed with 1.5% PFA before staining. Determination of mitochondrial mass, membrane potential, mitochondrial superoxide and cellular ROS was performed using MitoTracker Green, Mito-Tracker Deep Red, MitoSOX Red, and CellROX Green reagents, respectively (all from Life Technologies). These dyes were added to cells to a final concentration of 0.125 μM, 0.125 μM, 5.0 μM and 0.625 μM, respectively, and incubated at 37° C. in a 5% CO2 humidified incubator for 30 min.

[1] = system: mTOR and its associated proteins S6K and 4EBP1; test: Western blotting of DLN CD8+ T cells, mTOR pathway; type: in vivo, mouse; conditions: CD8+ T cells from mice treated with PD-L1 antibody and reagent
Procedure: (§1) FIG. 7. […] Phosphorylation of AMPK, ACC, mTOR and S6K and the expression of SIRT1 and 4EBP1 were analyzed by Western blotting. b) MC38-bearing mice were treated with PD-L1 antibody in combination with AMPK activator (A769662) and/or mTOR activator (MHY1485) according to the same schedule as shown in FIG. 3b.
(§2) CD8^+ T cells were isolated using mouse CD8 Microbeads (Miltenyi Biotec). After washing with PBS twice, 2×10^6 cells were solubilized in a lysis buffer containing 30 mM Tris-HCl (pH.7.4), 150 mM NaCl, 10% glycerol, 0.1% SDS, 1% Triton-X-100, 0.05% Na-Doc, 5 mM EDTA (pH.8.0), protease inhibitor mixture (Roche Molecular Biochemicals) and phosphatase inhibitors (Nacalai Tesque). After measurement of protein concentrations by DC protein assay (Bio-Rad), 4 μg of proteins was mounted on 4 to 20% gradient Mini-PROTEAN TGX Gels (Bio-Rad) and electroblotted onto nitrocellulose membranes, which were then incubated in a blocking buffer of TBS containing 1% BSA. Primary antibody incubations were carried out overnight at 4° C. in blocking buffer. After washing, secondary antibody incubations were carried out at room temperature for 40 min in blocking buffer. Blots were developed with enhanced chemiluminescence (Amersham Pharmacia). […]

[2] = system: AMPK and its associated proteins ACC and SIRT1; test: Western blotting of DLN CD8+ T cells, AMPK pathway; type: in vivo, mouse; conditions: CD8+ T cells from mice treated with PD-L1 antibody and reagent
Procedure: as §1, §2

SMILES: N#CC(C#N)=NNc1ccc(OC(F)(F)F)cc1 [FCCP, carbonyl cyanide p-trifluoromethoxyphenylhydrazone]
- antitumor effect when administered alone (MC38; MC38-bearing mice, reagent alone, no PD-L1 antibody, tumor volume): failed to exhibit any antitumor effect
- enhancement of antitumor effect of PD-L1 antibody (tumor volume) (MC38; MC38-bearing mice, reagent combined with PD-L1 antibody vs PD-L1 antibody alone): augmented the efficacy of PD-L1 antibody therapy; also recorded: enhance the antitumor effect of PD-L1 antibody
- survival rate (MC38; mouse, in vivo): remarkably improved the survival rate
- IFN-γ production (IFN-γ): increased; also recorded: up-regulated
- activation of mTOR and its associated proteins S6K and 4EBP1 [1]: also found to be activated
- activation of AMPK and its associated proteins ACC and SIRT1 [2]: activated
